Some test systems named below: ACHN renal; DMS 273 small cell lung; KM12 colon; LXFL 529 NSCLC; MALME-3M melanoma; NCI-H522 lung; OVCAR-8 ovarian; MCF7 breast; MDA-MB-435; MDA-N.
What all share (experiment): NCI tumour cell line growth inhibition, 48 h

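Compound exposure: 48 hours, 5 concentrations, 96-well plates. Here, GI50 denotes the concentration required for 50% inhibition of growth. TGI: concentration producing complete growth inhibition.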

As for `C=C(C(=O)C(=O)Oc1ccc(Cl)cc1)C(=O)c1ccc(C)cc1`, the TGI in the test with ACHN renal was more than 100 µM; in the test with DMS 273 small cell lung, more than 100 µM; in the test on KM12 colon it was 42.5 µM; in the test on LXFL 529 NSCLC, 80 µM; with MALME-3M melanoma, more than 100 µM; in the test on NCI-H522 lung, 40 µM. The same molecule returned a TGI in the test on OVCAR-8 ovarian of more than 100 µM.
On to `C/C(CCOC1CCCCO1)=C(\C)[Si](C)(C)C` (configuration not stated), for which the TGI in the test with ACHN renal, in the test on KM12 colon, with LXFL 529 NSCLC, in the test with MALME-3M melanoma, in the test on NCI-H522 lung and in the test with OVCAR-8 ovarian was more than 100 µM throughout.
As for `CCOC(=O)c1csc(NC(=O)CCN(CC)CC)n1`, the TGI in the test on ACHN renal is more than 100 µM; with KM12 colon, 52.8 µM; in the test on MCF7 breast it was 55.5 µM; in the test on MDA-MB-435, more than 100 µM; with MDA-N, more than 100 µM; with OVCAR-8 ovarian it was 95.9 µM.
Regarding `O=C1C(Cl)=C(N2CCN(C3=C(Cl)C(=O)c4ccccc4C3=O)CC2)C(=O)c2ccccc21`, the TGI was 3.09 µM in the test on ACHN renal; 5.44 µM in the test with DMS 273 small cell lung; 15.4 µM with KM12 colon; 0.793 µM in the test on LXFL 529 NSCLC; 3.32 µM in the test on MALME-3M melanoma; 3.34 µM in the test with MCF7 breast. The TGI was 3.27 µM in the test with MDA-MB-435, 3.29 µM in the test with MDA-N, 1.83 µM in the test on NCI-H522 lung and 3.16 µM in the test on OVCAR-8 ovarian.
As to `Oc1ccc(/C=C/c2cc(O)cc(O)c2)cc1`, the TGI with ACHN renal, in the test with KM12 colon, in the test with MCF7 breast, in the test with MDA-MB-435, in the test on MDA-N and in the test on OVCAR-8 ovarian was more than 100 µM in each case.
As to `COC(=O)C1C(C(=O)OC)N(Cc2ccccc2)C(=O)N1Cc1ccccc1` (configuration not stated), the TGI in the test on ACHN renal, in the test with KM12 colon, with MALME-3M melanoma, in the test with MCF7 breast, in the test on MDA-MB-435 and with MDA-N was more than 100 µM throughout. Also, the TGI in the test with NCI-H522 lung was 96.3 µM; in the test with OVCAR-8 ovarian, more than 100 µM.
In the case of `C[C@]12CC[C@@H]3c4ccc(O)cc4CC[C@H]3[C@@H]1C/C(=C\c1ccncc1)C2=O`, the TGI was more than 100 µM with ACHN renal; 37.6 µM with KM12 colon; 54.8 µM in the test with MALME-3M melanoma; more than 100 µM in the test with MCF7 breast; 74.9 µM in the test on MDA-MB-435; more than 100 µM in the test with MDA-N. This molecule also gave a TGI with OVCAR-8 ovarian of 56.3 µM.
For `CCCc1cc(=O)c2c(C)c3[nH]c4ccc(Cl)cc4c3c(C)c2[nH]1`, the TGI in the test on ACHN renal is 3.71 µM; in the test on KM12 colon it was 12.3 µM; in the test with MALME-3M melanoma it was 23 µM; with MCF7 breast, 3.37 µM; in the test with MDA-MB-435 it was 3.11 µM; with MDA-N it was 3.9 µM. The TGI in the test on NCI-H522 lung is 4.51 µM; with OVCAR-8 ovarian it was 6.31 µM.
Turning to `N.N.N.O=[N+]([O-])[O-].O=[N+]([O-])[O-].O=[N+]([O-])[O-].O=[N+]([O-])[O-].[Co+3]`, the TGI in the test on ACHN renal, in the test with DMS 273 small cell lung, in the test on KM12 colon, in the test on LXFL 529 NSCLC, in the test with MALME-3M melanoma and in the test with NCI-H522 lung was more than 100 µM throughout. Also, the TGI in the test with OVCAR-8 ovarian was more than 100 µM. The GI50 with DMS 273 small cell lung and in the test on LXFL 529 NSCLC was more than 100 µM each time.
For `COc1ccc2[nH]c(O)c(/C=c3/cc4c(c(-c5cc(OC)c(OC)c(OC)c5)n3)=Nc3ccccc3-4)c2c1`, the GI50 was 7.47 µM in the test with ACHN renal; 5.04 µM in the test with KM12 colon; 63.6 µM in the test on MALME-3M melanoma; 2.11 µM in the test with MCF7 breast; 3.48 µM in the test on MDA-MB-435; 5.03 µM in the test on NCI-H522 lung. For the same molecule, the GI50 with OVCAR-8 ovarian is 3.77 µM. Further, the TGI in the test with ACHN renal, with KM12 colon, with MALME-3M melanoma, with MCF7 breast, with MDA-MB-435 and in the test on NCI-H522 lung was more than 100 µM each time. The molecule further showed a TGI in the test with OVCAR-8 ovarian of more than 100 µM.
As for `C#CCCCCC#Cc1ccccc1C(=O)OC`, the TGI in the test with ACHN renal is more than 100 µM; in the test on DMS 273 small cell lung, more than 100 µM; in the test with KM12 colon, more than 100 µM; in the test on MALME-3M melanoma, more than 100 µM; in the test on OVCAR-8 ovarian it was 31.5 µM.
Regarding `NC(N)=NS(=O)(=O)c1ccc(NCc2c3ccccc3[n+]([O-])c3ccccc23)cc1`, the TGI was 70.4 µM in the test with ACHN renal; more than 100 µM in the test on DMS 273 small cell lung; more than 100 µM with KM12 colon; 80.5 µM in the test with LXFL 529 NSCLC; 51.5 µM with MALME-3M melanoma; more than 100 µM in the test with NCI-H522 lung. In the test on OVCAR-8 ovarian, this molecule came in with a TGI of more than 100 µM.
As to `CC(C)OP(=O)(OC(C)C)c1c(Nc2ccccc2)n[nH]c1N`, the TGI in the test with ACHN renal, in the test with KM12 colon, with MALME-3M melanoma, with MCF7 breast, with MDA-MB-435 and with MDA-N was more than 100 µM in each case. The TGI with NCI-H522 lung and with OVCAR-8 ovarian was more than 100 µM throughout.
As to `O=C(O)CC/C(=N\Nc1nsc2ccccc12)c1ccccc1`, the TGI in the test on ACHN renal was more than 100 µM; with DMS 273 small cell lung, 67.3 µM; with KM12 colon, more than 100 µM; in the test with LXFL 529 NSCLC it was more than 100 µM; in the test on OVCAR-8 ovarian, more than 100 µM.
Take `CCN1c2ccccc2-n2c(C)nnc2-c2c1n[nH]c2-c1ccccc1`: the TGI was more than 100 µM in the test on ACHN renal; more than 100 µM in the test on KM12 colon; 82.9 µM with MDA-MB-435; more than 100 µM in the test with MDA-N; 5.98 µM in the test on NCI-H522 lung; more than 100 µM in the test on OVCAR-8 ovarian.

Source of the values: PubChem BioAssay (NCI).
